Data as given in patent US6391917B1, “Dialkyl ureas as calcitonin mimetics” (ZymoGenetics, Inc., priority 1998, dated 2002).

Molecular target: T1, Human calcitonin receptor (Homo sapiens, UniProt P30988)
T1 construct: expressed in transfected cells; host or cells: BHK-570 (Hollex-1)
T1 sequence (P30988 25-474): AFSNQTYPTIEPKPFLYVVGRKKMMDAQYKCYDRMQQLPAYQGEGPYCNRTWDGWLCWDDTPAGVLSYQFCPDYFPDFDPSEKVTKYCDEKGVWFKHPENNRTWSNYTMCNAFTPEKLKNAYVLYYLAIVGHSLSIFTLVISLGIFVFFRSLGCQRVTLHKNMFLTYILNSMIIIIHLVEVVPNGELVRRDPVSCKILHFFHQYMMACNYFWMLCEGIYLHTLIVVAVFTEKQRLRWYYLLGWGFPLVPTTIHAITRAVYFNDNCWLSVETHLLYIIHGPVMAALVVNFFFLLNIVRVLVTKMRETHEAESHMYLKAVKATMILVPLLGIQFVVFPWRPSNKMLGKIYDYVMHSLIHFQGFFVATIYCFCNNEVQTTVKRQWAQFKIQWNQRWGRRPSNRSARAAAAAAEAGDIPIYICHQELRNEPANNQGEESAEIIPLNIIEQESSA
Test: CRE-luciferase assay for calcitonin mimetics (Hollex-1)
Type: cell-based
Protocol: CRE-Luciferase Assay Method for Calcitonin Mimetics
Human calcitonin receptor-positive and receptor-negative BHK-570 (Baby Hamster Kidney) cell lines were maintained by serial passage in growth medium (DMEM supplemented with 10% heat-inactivated fetal calf serum (HI-FCS), 2 mM L-glutamine, 1 mM sodium pyruvate, 250 nM MTX, and 1 mg/mL G418). On the day prior to assay, cells were trypsinized, adjusted to 2.5×10^5 cells/ml in growth medium, plated in opaque white Dynatech Microlite microtiter tissue culture plates at 50 μL/well, and grown overnight to confluence (37° C., 5% CO2 atmosphere).
Test substances were prepared in DMSO or 10% DMF at 100 times the final desired assay concentration. […] Controls were included on each plate: untreated wells (basal), […], and 100 nM human calcitonin. DMSO or DMF was included in control wells at a concentration equal to that in test samples (not to exceed a final assay concentration of 2% DMSO or 0.5% DMF, with a preferred maximum of 1% DMSO or 0.1% DMF).
Plates were incubated for 3 to 8 hours (4 hours preferred) at 37° C. in an atmosphere of 5% CO2. Following induction, luciferase activity was measured using a Promega luciferase assay kit (E1500) according to the assay kit protocol (Promega Corp., Madison, Wis.). Briefly, assay medium was removed and cells were washed once with phosphate buffered saline (PBS). After the wash, 25 μl of lysis buffer was added to each well, and the plates were incubated for 15 minutes at room temperature. Fifty microliters of Luciferase Assay Substrate (Promega, Corp.) was added to each well and the plates were transferred to a Labsystems Lumiscan microtiter luminometer (Labsystems Inc., Morton Grove, Ill.). The amount of luminescence (relative light units, RLU) was determined following a 0.1 second/well integration of signal. Basal (uninduced) luciferase signal was subtracted from all measurements, and the luciferase signal induced by test samples was expressed as a percentage of the signal in the calcitonin and forskolin controls. Specificity of the luciferase induction for calcitonin receptor-positive cell lines was determined by comparing the percent control values in the calcitonin receptor-positive line (Hollex-1) to those observed in the calcitonin receptor-negative cell line (KZ10-20-48/Zem 228) and the PTH receptor-positive cell line (KZ10-20-48/PTH-20) described below. Samples inducing a signal over the basal level were selected for further characterization, see Table 1 for examples.

| SMILES | Luciferase induction (% of maximum luciferase induction produced by CT, 100 nM) (crude compound 3.125 μg/ml) | Luciferase induction (% of maximum luciferase induction produced by CT, 100 nM) (crude compound 6.25 μg/ml) | Luciferase induction (% of maximum luciferase induction produced by CT, 100 nM) (crude compound 12.5 μg/ml) | Luciferase induction (% of maximum luciferase induction produced by CT, 100 nM) (crude compound 25 μg/ml) | Luciferase induction (% of maximum luciferase induction produced by CT, 100 nM) (crude compound 50 μg/ml) |
| --- | --- | --- | --- | --- | --- |
| CCNC(=O)C(Cc1ccc(OCC)cc1)NC(=O)Nc1cc(C(C)(C)C)ccc1C(C)(C)C (stereo not shown) [628-007] | 0.76% | 10.61% | 31.97% | 55.34% | 31.73% |
| CCNC(=O)C(Cc1cn(CC)c2ccccc12)NC(=O)Nc1cc(C(C)(C)C)ccc1C(C)(C)C (stereo not shown) [628-008] | −1.31% | 2.91% | 20.07% | 50.93% | 50.39% |
| C=CCNC(=O)[C@@H](Cc1ccccc1)NC(=O)Nc1cc(C(C)(C)C)ccc1C(C)(C)C [628-013] | 3.51% | 17.98% | 51.62% | 69.62% | 64.26% |
| C=CCNC(=O)C(Cc1ccc(OCC=C)cc1)NC(=O)Nc1cc(C(C)(C)C)ccc1C(C)(C)C (stereo not shown) [628-015] | 1.62% | 14.69% | 43.2% | 72.17% | 71.49% |
| C=CCNC(=O)C(Cc1cn(CC=C)c2ccccc12)NC(=O)Nc1cc(C(C)(C)C)ccc1C(C)(C)C (stereo not shown) [628-016] | 10.72% | 43.89% | 76.44% | 80.63% | 75.76% |
| CCNC(=O)[C@@H](Cc1ccc(Cl)cc1)NC(=O)Nc1cc(C(C)(C)C)ccc1C(C)(C)C [628-022] | 2.08% | 3.26% | 17.85% | 41.52% | 46.98% |
| CCNC(=O)[C@@H](Cc1ccc(F)cc1)NC(=O)Nc1cc(C(C)(C)C)ccc1C(C)(C)C [628-023] | −0.46% | 7.84% | 32.04% | 46.84% | 41.79% |
| CCNC(=O)[C@@H](Cc1ccc(I)cc1)NC(=O)Nc1cc(C(C)(C)C)ccc1C(C)(C)C [628-024] | −1.24% | 1.39% | 11.8% | 22.64% | 30.25% |
| CCNC(=O)[C@@H](Cc1ccc2ccccc2c1)NC(=O)Nc1cc(C(C)(C)C)ccc1C(C)(C)C [628-025] | 0.42% | 0.65% | 2.33% | 7.96% | 22.61% |
| C=CCNC(=O)[C@@H](Cc1ccc(Cl)cc1)NC(=O)Nc1cc(C(C)(C)C)ccc1C(C)(C)C [628-032] | – | 25.42% | 27.28% | 31.34% | 33.94% |
